Measured values published in patent publication US12419865B2 (priority 2018, dated 2025).
Where two headings read alike, the source gives them in different places.

Experiments:
[1] = 1 h, pH 7.4
[2] = mouse, in vivo, 30 mg/kg
[3] = 1 h, pH 7.4; remark: listed apart in the source
[4] = system: VSV-p; assay: microbe, parasite or virus in culture; type: cell-based; conditions: Vesicular stomatitis virus, Vero, read-out: VSV-p EC50
[5] = system: replicative LASV; assay: microbe, parasite or virus in culture; type: cell-based, Lassa Virus; conditions: Mammarenavirus lassaense
[6] = 1 h, pH 7.4; remark: listed apart in the source
[7] = system: JUNV-p; assay: organism not typed; type: cell-based, Junin (JUNV); conditions: Vero, read-out: JUNV-p EC50
[8] = target: hERG channel (Homo sapiens, UniProt Q12809); conditions: pH 7.4
[9] = 1 h, pH 7.4; remark: listed apart in the source
[10] = 1 h, pH 7.4; remark: listed apart in the source
[11] = mouse, in vivo, po
[12] = guinea pig, 1 h, pH 7.4
[13] = in vitro; conditions: African green monkey
[14] = system: LASV-p; assay: microbe, parasite or virus in culture; type: cell-based, Lassa (LASV); conditions: Vesicular stomatitis virus, Vero, read-out: LASV-p EC50
[15] = system: native replicating Tacaribe (TCRV) virus; assay: microbe, parasite or virus in culture; type: cell-based; conditions: Mammarenavirus tacaribeense, Vero, 120 h, read-out: TCRV EC50
[16] = system: MACV-p; assay: organism not typed; type: cell-based, Machupo (MACV); conditions: Vero, read-out: MACV-p EC50
[17] = system: replicative LASV; assay: microbe, parasite or virus in culture; type: cell-based, Lassa Virus; conditions: for EC90: Mammarenavirus lassaense
[18] = system: TCRV-p; assay: organism not typed; type: cell-based; conditions: read-out: TCRV-p EC50
[19] = in vivo; conditions: mouse
[20] = system: GTOV-p; assay: organism not typed; type: cell-based, Guanarito (GTOV); conditions: Vero, read-out: GTOV-p EC50
[21] = read-out: EC50 in the plaque assay format
[22] = read-out: EC90 in the VYR assay format

Chain of hERG channel (Q12809 whole entry): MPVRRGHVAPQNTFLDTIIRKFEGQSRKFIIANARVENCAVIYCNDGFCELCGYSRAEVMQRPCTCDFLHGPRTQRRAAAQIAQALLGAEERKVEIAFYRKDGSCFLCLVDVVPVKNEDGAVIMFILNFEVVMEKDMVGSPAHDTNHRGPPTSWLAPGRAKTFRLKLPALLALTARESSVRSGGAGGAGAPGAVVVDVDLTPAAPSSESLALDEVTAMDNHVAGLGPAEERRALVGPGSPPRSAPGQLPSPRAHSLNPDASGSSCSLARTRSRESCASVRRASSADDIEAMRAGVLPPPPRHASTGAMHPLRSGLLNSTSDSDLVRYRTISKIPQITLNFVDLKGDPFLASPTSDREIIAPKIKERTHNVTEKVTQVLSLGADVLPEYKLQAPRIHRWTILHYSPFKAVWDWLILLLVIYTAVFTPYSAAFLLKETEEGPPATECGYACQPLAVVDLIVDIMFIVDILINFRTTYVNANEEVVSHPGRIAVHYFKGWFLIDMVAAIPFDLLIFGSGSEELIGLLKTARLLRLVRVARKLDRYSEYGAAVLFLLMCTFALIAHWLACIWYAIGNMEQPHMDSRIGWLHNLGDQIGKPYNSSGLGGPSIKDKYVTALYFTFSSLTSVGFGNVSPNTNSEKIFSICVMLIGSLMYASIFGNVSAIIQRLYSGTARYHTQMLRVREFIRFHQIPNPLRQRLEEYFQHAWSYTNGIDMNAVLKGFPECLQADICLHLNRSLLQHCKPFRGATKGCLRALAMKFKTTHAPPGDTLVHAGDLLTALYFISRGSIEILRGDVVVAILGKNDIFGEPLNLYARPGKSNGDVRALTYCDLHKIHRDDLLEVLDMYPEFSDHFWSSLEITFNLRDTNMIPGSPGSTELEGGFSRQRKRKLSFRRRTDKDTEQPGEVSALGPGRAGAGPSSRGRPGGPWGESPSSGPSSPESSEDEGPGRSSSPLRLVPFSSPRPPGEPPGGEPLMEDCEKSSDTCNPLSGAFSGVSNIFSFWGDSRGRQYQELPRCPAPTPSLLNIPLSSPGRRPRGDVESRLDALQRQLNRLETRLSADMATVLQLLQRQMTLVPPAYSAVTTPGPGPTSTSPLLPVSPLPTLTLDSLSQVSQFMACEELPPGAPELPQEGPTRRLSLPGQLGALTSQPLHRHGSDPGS

| SMILES | Percent parent compound remaining at 60 minutes in liver microsomes, Mouse [1] [%] | Percent parent compound remaining at 60 minutes in liver microsomes, Dog [3] [%] | EC50 [4] [nM] | EC50 [5, 21] [nM] | EC50 ([5]; read-out: Plaque Assay EC50) [nM] | Percent parent compound remaining at 60 minutes in liver microsomes, Rat [6] [%] | EC50 [7] [nM] | % Inhibition at 3 uM [8] [%] | Percent parent compound remaining at 60 minutes in liver microsomes, Human [9] [%] | Percent parent compound remaining at 60 minutes in liver microsomes, Guinea [12] [%] | CC50 [13] [nM] | EC50 [14] [nM] | EC50 [15] [nM] | EC50 [16] [nM] | Sl90 [17] | EC90 ([17]; Vero, read-out: VYR Assay EC90) [nM] | EC90 [17, 22] [nM] | EC50 ([18]; Vero) [nM] | EC50 [18] [nM] | EC50 [20] [nM] | other results |
| --- | --- | --- | --- | --- | --- | --- | --- | --- | --- | --- | --- | --- | --- | --- | --- | --- | --- | --- | --- | --- | --- |
| Cc1cc2ncn(-c3ccc(OC(C)(C)C)cc3)c2cc1-c1ccc(C(C)(C)O)cc1 [Example A1, 2-(4-(1-(4-(tert-butoxy)phenyl)-5-methyl-1H-benzo[d]imidazol-6-yl)phenyl)propan-2-ol] | 82.7 | >95 | > 10000 | 1 to 3 | < 3 | 93.8 | 0.87 | <10 | 68.3 | >95 | 37700 | 0.83 | 0.89 | 0.12 | >33,000 | < 1 | 1 to 3 | 0.29 | 0.24 | – | Oral C-Max [2]: 20.4 µg/mL; Oral T-Max [2]: 0.5 h; Percent parent compound remaining at 60 minutes in liver microsomes, Monkey [10]: 8.6%; 24 hr liver concentration [11]: 240.3 ug/g liver; 24 hr plasma concentration [11]: 8.8 µg/mL; Vd [19]: 17.6 L/kg; clearance [19]: 0.8 mL/min/kg; AUC(0-t) ([19]; po, 30 mg/kg): 183 µg·h/mL; bioavailability ([19]; po, 30 mg/kg): 35%; half-life ([19]; po, 30 mg/kg): 17 h |
| Cc1cc2ncn(-c3ccc(OC(C)(C)C)cc3)c2cc1-c1ccc(OC(C)C)cc1 [Example A2, 1-(4-(tert-butoxy)phenyl)-6-(4-isopropoxyphenyl)-5-methyl-1H-benzo[d]imidazole] | 93.9 | >95 | > 10000 | 1 to 3 | < 3 | >95 | 0.15 | – | 95 | >95 | 7300 | 0.38 | 0.33 | 0.14 | >13,000 | < 1 | 1 to 3 | 0.15 | 0.12 | 0.05 | Percent parent compound remaining at 60 minutes in liver microsomes, Monkey [10]: 53% |
| Cc1cc2ncc(-c3ccc(C(C)(C)O)cc3)n2cc1-c1ccc(OC(C)C)cc1 [Example B8, 2-(4-(6-(4-isopropoxyphenyl)-7-methylimidazo[1,2-a]pyridin-3-yl)phenyl)propan-2-ol] | 77.5 | 77.57 | > 10000 | 1 to 3 | < 3 | 93 | 0.76 | <10 | 87.6 | 67.7 | 27800 | 2.91 | 2.16 | 0.61 | >9,000 | < 3 | 1 to 3 | 0.32 | 0.32 | 0.94 | Percent parent compound remaining at 60 minutes in liver microsomes, Monkey [10]: 33.7% |
| Cc1cc2ncc(-c3ccc(OC(C)(C)C)cc3)n2cc1-c1ccc(OC(C)C)cc1 [Example B7, 3-(4-(tert-butoxy)phenyl)-6-(4-isopropoxyphenyl)-7-methylimidazo[1,2-a]pyridine] | – | – | > 10000 | 1 to 3 | < 3 | – | 0.31 | <10 | – | – | 8140 | 0.9 | 0.74 | 0.42 | >11,000 | < 1 | 1 to 3 | 0.16 | 0.2 | 0.12 | Oral C-Max [2]: 5.5 µg/mL; Oral T-Max [2]: 2 h; 24 hr liver concentration [11]: 63.4 ug/g liver; 24 hr plasma concentration [11]: 9.1 µg/mL; Vd [19]: 35.7 L/kg; clearance [19]: 13.7 mL/min/kg; AUC(0-t) ([19]; po, 30 mg/kg): 70.4 µg·h/mL; bioavailability ([19]; po, 30 mg/kg): 30% |
| CC(C)Oc1ccc(-c2cc3c(cc2Cl)nnn3-c2ccc(OC(C)C)cc2)cc1 [Example C11, 5-chloro-1,6-bis(4-isopropoxyphenyl)-1H-benzo[d][1,2,3]triazole] | >95 | – | > 10000 | – | – | – | 0.1 | <10 | >95 | >95 | > 100000 | 2.29 | 0.84 | 0.19 | – | – | – | 0.77 | 0.61 | – | – |
| Cc1cc2ncc(-c3ccc(OC(C)(C)C)cc3)n2cc1-c1ccc(C(C)(C)O)cc1 [Example B6, 2-(4-(3-(4-(tert-butoxy)phenyl)-7-methylimidazo[1,2-a]pyridin-6-yl)phenyl)propan-2-ol] | 81.7 | – | > 10000 | – | – | – | 0.22 | – | 81.5 | 61.5 | 4320 | 0.7 | 0.95 | 0.13 | – | – | – | 0.16 | 0.1 | 0.11 | – |
